Data published in ChEMBL document CHEMBL5131465, “Pyrazoline analogues: Design, synthesis, and evaluation of anti-osteoporosis activity” (Bioorg Med Chem Lett, 2022).
Active and inactive are the calls of the source.

Legend:
Format in all cases: functional, cell-based
Calvarial osteoblast [1] = test: Induction of osteoblast differentiation in mouse calvarial osteoblasts assessed as increase in ALP activity at 0.000001 to 1 uM by spectrophotometric analysis; conditions: dose lower 1e-06 µM, dose upper 1.0 µM
Calvarial osteoblast [2] = test: Induction of osteoblast differentiation in mouse calvarial osteoblasts assessed as increase in Type-1 collagen protein expression at 1 to 100 pM after 48 hrs by western blot analysis; conditions: dose 1-100 pM
Calvarial osteoblast [3] = test: Induction of new bone formation in mouse calvarial osteoblasts assessed as increase in intracellular calcium level at 1 to 100 pM by Fluo-4AM dye based assay; conditions: dose 1-100 pM
Calvarial osteoblast [4] = test: Cytoprotective activity against serum deprivation-induced apoptosis in mouse calvarial osteoblasts assessed as increase in Bcl-2 protein expression at 1 to 100 pM by western blot analysis; conditions: dose 1-100 pM
Calvarial osteoblast [5] = test: Induction of osteoblast differentiation in mouse calvarial osteoblasts assessed as increase in RUNX2 protein expression at 1 to 100 pM after 48 hrs by western blot analysis; conditions: dose 1-100 pM
Calvarial osteoblast [6] = test: Induction of osteoblast differentiation in mouse calvarial osteoblasts assessed as increase in cell viability at 0.000001 to 1 uM by MTT assay; conditions: dose lower 1e-06 µM, dose upper 1.0 µM
Calvarial osteoblast [7] = test: Induction of osteoblast differentiation in mouse calvarial osteoblasts assessed as increase in BMP2 protein expression at 1 to 100 pM after 48 hrs by western blot analysis; conditions: dose 1-100 pM
HBMSC = test: Induction of new bone formation in BMSC cells (unknown origin) assessed as increase in formation of mineralized nodules at 1 to 100 pM; conditions: Homo sapiens, dose 1-100 pM
Calvarial osteoblast [8] = test: Induction of osteoblast differentiation in mouse calvarial osteoblasts assessed as increase in RUNX-2 mRNA expression at 1 to 100 pM after 48 hrs by qPCR analysis; conditions: dose 1-100 pM
Calvarial osteoblast [9] = test: Induction of osteoblast differentiation in mouse calvarial osteoblasts assessed as increase in BMP2 mRNA expression at 1 to 100 pM after 48 hrs by qPCR analysis; conditions: dose 1-100 pM
Calvarial osteoblast [10] = test: Cytoprotective activity against serum deprivation-induced apoptosis in mouse calvarial osteoblasts assessed as reduction in apoptotic cells at 1 to 100 pM by Annexin/PI staining based flow cytometric analysis; conditions: dose 1-100 pM
Calvarial osteoblast [11] = test: Cytoprotective activity against serum deprivation-induced apoptosis in mouse calvarial osteoblasts assessed as reduction in BAX protein expression at 1 to 100 pM by western blot analysis; conditions: dose 1-100 pM
Calvarial osteoblast [12] = test: Induction of osteoblast differentiation in mouse calvarial osteoblasts assessed as increase in Type-1 collagen mRNA expression at 1 to 100 pM after 48 hrs by qPCR analysis; conditions: dose 1-100 pM

Measured: Activity

CC(C)=CCC1(C)C=Cc2ccc(O)c(C(=O)/C=C/c3ccc(Cl)cc3)c2O1 (stereo not drawn)
active: Calvarial osteoblast [1]

CC1(C)C=Cc2ccc(O)c(C3=NNC(c4ccc(Cl)cc4)C3)c2O1 (stereo not drawn)
active: all assays above

CC1(C)C=Cc2c(ccc(C(=O)/C=C/c3ccc(Cl)cc3)c2O)O1
active: Calvarial osteoblast [1]

CC(=O)N1N=C(c2c(O)ccc3c2OC(C)(C)C=C3)CC1c1ccc(Cl)cc1 (stereo not drawn)
active: Calvarial osteoblast [1]

CC1(C)C=Cc2ccc(O)c(-c3cc(-c4ccc(Cl)cc4)on3)c2O1
active: Calvarial osteoblast [1]

CC1(C)C=Cc2c(ccc(C3=NN(c4ccccc4)C(c4ccc(Cl)cc4)C3)c2O)O1 (stereo not drawn)
active: Calvarial osteoblast [1]
